Reference: patent US8399490B2, “Insecticides” (Syngenta Crop Protection LLC, priority 2007, dated 2013)
Where two headings read alike, the source gives them in different places.

Assays:
[1] = system: Heliothis virescens (tobacco budworm); assay: Example B2: Activity against Heliothis virescens (ovo-larvicide, feeding/contact activity, curative), eggs on artificial diet; type: in vivo; conditions: 96 h, 4 days incubation
Procedure: Activity Against Heliothis virescens (Tobacco Budworm) (Ovo-Larvicide, Feeding/Contact Activity, Curative) Eggs (0-24 h old) are placed in 24-well microtiter plate on artificial diet and treated with test solutions by pipetting. After an incubation period of 4 days, samples are checked for egg mortality, larval mortality, and growth regulation.

[2] = system: Spodoptera littoralis (Egyptian cotton leafworm); assay: Example B1: Activity against Spodoptera littoralis (larvicide, feeding/residual contact activity, preventive), cotton leaf discs; type: in vivo; conditions: foliar, 72 h, L1 larvae on cotton leaf discs, 3 days after treatment
Source text: Activity Against Spodoptera littoralis (Egyptian Cotton Leafworm)
(Larvicide, Feeding/Residual Contact Activity, Preventive)
The samples are checked for mortality, repellent effect, feeding behaviour, and growth regulation 3 days after treatment. In this test, compounds listed in Table P above show good activity. In particular compounds P.1, P.2, P.3, P.4, P.5, P.6, P.7, P.8, P.9, P.10, P.11, P.12, P.13, P.14, P.15, P.16, P.17, P.18, P.19, P.20, P.21, P.22, P.23, P.24, P.25, P.26, P.27, P.28, P.29, P.30, P.31, P.32, P.33, P.34, P.35, P.36, P.37, P.38, P.39, P.40, P.41, P.42, P.43, P.44, P.46, P.50, P.51, P.52, P.55, P.56, P.57, P.58, P.59, P.60, P61, P.66, P.67, P.68, P.69, P.70, P.71, P.72, P.73, P.74, P.75, P.76, P.77, P.78, P.83, P.84, P.87 and P.88 show an activity of over 80% at a concentration of 400 ppm.

[3] = system: Myzus persicae (green peach aphid); conditions: foliar, 144 h, read-out: activity
[4] = system: Plutella xylostella (diamond back moth); assay: Example B3: Plutella xylostella (larvicide, feeding/residual contact activity, preventive), artificial diet MTP; type: in vivo; conditions: 120 h, L2 larvae on artificial diet, 5 days incubation
Procedure: (§1) Plutella xylostella (Diamond Back Moth) (Larvicide, Feeding/Residual Contact Activity, Preventive) 24-well microtiter plate (MTP) with artificial diet is treated with test solutions by pipetting. After drying, the MTP's are infested with larvae (L2) (10-15 per well). After an incubation period of 5 days, samples are checked for larval mortality, antifeedant and growth regulation.

[5] = system: Myzus persicae (green peach aphid); assay: Example B6: Activity against Myzus persicae (mixed population, systemic/feeding activity, curative), pea seedling roots in test solution; conditions: 144 h, read-out: activity
[6] = system: Diabrotica balteata (corn root worm); assay: Example B4: Diabrotica balteata (larvicide, feeding/residual contact activity, preventive), artificial diet MTP; type: in vivo; conditions: 120 h, L2 larvae on artificial diet, 5 days incubation
Procedure: as §1, with “Diabrotica balteata (Corn Root Worm)” for “Plutella xylostella (Diamond Back Moth)”, “(6-10” for “(10-15”

Measured: pest or weed control at 400 ppm

CCNC(=O)c1c(NC(=O)c2cc(C(F)F)nn2-c2ncccc2Cl)c(Cl)cc2c1OCO2 [P.5]
> 80%: [1] | [2] | [3] | [4]

COc1cc(C(=O)Nc2c(Cl)cc3c(c2C(=O)NC(C)C)OCO3)n(-c2ncccc2Cl)n1 [P.12]
> 80%: [1] | [2] | [3] | [4]

Cc1cc2c(c(C(=O)NC(C)C)c1NC(=O)c1cc(Br)nn1-c1ncccc1Cl)OC(F)(F)O2 [P.14]
not listed: [6]
> 80%: all other assays above

CNC(=O)c1c(NC(=O)c2cc(C(F)(F)F)nn2-c2ncccc2Cl)c(Cl)cc2c1OC(F)(F)O2 [P.15]
> 80%: all assays above

CSCC(C)(C)NC(=O)c1c(NC(=O)c2cc(C(F)(F)F)nn2-c2ncccc2Cl)c(Cl)cc2c1OC(F)(F)O2 [P.16]
> 80%: all assays above

CNC(=O)c1c(NC(=O)c2cc(Br)nn2-c2ncccc2Cl)c(Cl)cc2c1OC(F)(F)O2 [P.18]
> 80%: all assays above

CC(C)NC(=O)c1c(NC(=O)c2cc(Br)nn2-c2ncccc2Cl)c(Cl)cc2c1OC(F)(F)O2 [P.19]
> 80%: all assays above

CSCC(C)(C)NC(=O)c1c(NC(=O)c2cc(Br)nn2-c2ncccc2Cl)c(Cl)cc2c1OC(F)(F)O2 [P.20]
> 80%: all assays above

O=C(NC1(C2CC2)CC1)c1c(NC(=O)c2cc(Br)nn2-c2ncccc2Cl)c(Cl)cc2c1OC(F)(F)O2 [P.21]
not listed: [5]
> 80%: all other assays above

CNC(=O)c1c(NC(=O)c2cc(Cl)nn2-c2ncccc2Cl)c(C)cc2c1OC(F)(F)O2 [P.29]
not listed: [3]
> 80%: all other assays above

CNC(=O)c1c(NC(=O)c2cc(C(F)(F)F)nn2-c2ncccc2Cl)c(C)cc2c1OC(F)(F)O2 [P.43]
> 80%: [1] | [2] | [6] | [4]

Cc1cc2c(c(C(=O)NC(C)C)c1NC(=O)c1cc(C(F)(F)F)nn1-c1ncccc1Cl)OC(F)(F)O2 [P.44]
> 80%: [1] | [2] | [6] | [4]

Cc1cc2c(c(C(=O)NCC3CC3)c1NC(=O)c1cc(C(F)(F)F)nn1-c1ncccc1Cl)OC(F)(F)O2 [P.46]
> 80%: [1] | [2] | [6] | [4]

CC(C)NC(=O)c1c(NC(=O)c2cc(OCC(F)(F)F)nn2-c2ncccc2Cl)c(Cl)cc2c1OCO2 [P.57]
> 80%: [1] | [2] | [6] | [4]

CC(C)NC(=O)c1c(NC(=O)c2cc(Br)nn2-c2ncccc2Cl)ccc2c1S(=O)(=O)C(C)C2 (centres unmarked) [P.60]
> 80%: [1] | [2] | [6] | [4]

COc1cc(C(=O)Nc2c(Cl)cc3c(c2C(=O)NC(C)C)C(O)CC3)n(-c2ncccc2Cl)n1 (centres unmarked) [P.66]
> 80%: [1] | [2] | [5] | [4]

Cc1cc2c(c(C(=O)NC(C)C)c1NC(=O)c1cc(C(F)(F)F)nn1-c1ncccc1Cl)OCO2 [P.67, 5-methyl-6-{[2-(3-chloro-pyridin-2-yl)-5-trifluoromethyl-2H-pyrazole-3-carbonyl]-amino}-2,4-dioxolane-benzoic acid isopropylamide]
> 80%: [1] | [2] | [6] | [4]

CCNC(=O)c1c(NC(=O)c2cc(C(F)(F)F)nn2-c2ncccc2Cl)c(C)cc2c1OCO2 [P.68]
> 80%: [1] | [2] | [6] | [4]

Cc1cc2c(c(C(=O)NC3(C4CC4)CC3)c1NC(=O)c1cc(C(F)(F)F)nn1-c1ncccc1Cl)OCO2 [P.69]
> 80%: [1] | [2] | [6] | [4]

Cc1cc2c(c(C(=O)NC(C)(C)C)c1NC(=O)c1cc(C(F)(F)F)nn1-c1ncccc1Cl)OCO2 [P.70]
> 80%: [1] | [2] | [6] | [4]

Cc1cc2c(c(C(=O)NC3(C4CC4)CC3)c1NC(=O)c1cc(C(F)F)nn1-c1ncccc1Cl)OCO2 [P.71]
> 80%: [1] | [2] | [3] | [4]

Cc1cc2c(c(C(=O)NC(C)(C)C)c1NC(=O)c1cc(C(F)F)nn1-c1ncccc1Cl)OCO2 [P.73]
> 80%: [1] | [2] | [6] | [4]

Cc1cc2c(c(C(=O)NC(C)C)c1NC(=O)c1cc(C(F)F)nn1-c1ncccc1Cl)OCO2 [P.74]
not listed: [3]
> 80%: all other assays above

Cc1cc2c(c(C(=O)NC(C)C)c1NC(=O)c1cc(Br)nn1-c1ncccc1Cl)OCO2 [P.75]
> 80%: [1] | [2] | [6] | [4]

CCNC(=O)c1c(NC(=O)c2cc(OC)nn2-c2ncccc2Cl)c(C)cc2c1OCO2 [P.76]
> 80%: [1] | [2] | [5] | [4]

COc1cc(C(=O)Nc2c(C)cc3c(c2C(=O)NC(C)C)OCO3)n(-c2ncccc2Cl)n1 [P.77]
> 80%: [1] | [2] | [5] | [4]

Cc1cc2c(c(C(=O)NC3(C4CC4)CC3)c1NC(=O)c1cc(Br)nn1-c1ncccc1Cl)OCO2 [P.78]
> 80%: [1] | [2] | [6] | [4]

CNC(=O)c1c(NC(=O)c2cc(C(F)F)nn2-c2ncccc2Cl)c(Br)cc2c1OC(C)C2 (centres unmarked) [P.83]
not listed: [5]
> 80%: all other assays above

CNC(=O)c1c(NC(=O)c2cc(Br)nn2-c2ncccc2Cl)c(Br)cc2c1S(=O)(=O)C(C)C2 (centres unmarked) [P.88]
> 80%: [1] | [2] | [3] | [4]
